Experimental findings from ChEMBL document CHEMBL1128368, “Synthesis and serotonergic activity of N,N-dimethyl-2-[5-(1,2,4-triazol-1-ylmethyl)-1H-indol-3-yl]ethylamine and analogues: potent agonists for 5-HT1D receptors” (J Med Chem, 1995) are described below.

SMILES strings stand for the structures.

Usually IC50 stands for the midpoint of a concentration-inhibition curve. Higher therefore signals lower potency. By EC50 is commonly meant the concentration that produces a half-maximal response. One may read the logD as lipophilicity at a set pH, counting ionised and neutral species. Read a low logD as a more hydrophilic compound. One may read the pIC50 as the IC50 on a negative log10 scale, so that one unit is a factor of ten. Read a high pIC50 as a low IC50.

Data set [1] has as its target T1, Serotonin 3 (5-HT3) receptor (Rattus norvegicus, UniProt P35563+Q9JJ16).
T1 sequence (P35563 whole entry): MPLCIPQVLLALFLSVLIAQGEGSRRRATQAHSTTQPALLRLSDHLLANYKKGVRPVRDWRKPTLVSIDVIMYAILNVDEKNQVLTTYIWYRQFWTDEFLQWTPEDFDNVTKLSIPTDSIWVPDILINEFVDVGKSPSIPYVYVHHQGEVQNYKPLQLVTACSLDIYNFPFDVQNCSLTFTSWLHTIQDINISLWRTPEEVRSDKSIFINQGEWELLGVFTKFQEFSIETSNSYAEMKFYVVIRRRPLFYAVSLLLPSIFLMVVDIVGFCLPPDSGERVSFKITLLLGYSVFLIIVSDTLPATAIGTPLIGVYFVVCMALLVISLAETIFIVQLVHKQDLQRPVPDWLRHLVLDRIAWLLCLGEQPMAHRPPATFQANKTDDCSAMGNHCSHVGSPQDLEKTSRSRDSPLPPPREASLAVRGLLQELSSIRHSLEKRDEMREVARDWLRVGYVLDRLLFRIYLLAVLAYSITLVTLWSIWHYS
T1 sequence (Q9JJ16 whole entry): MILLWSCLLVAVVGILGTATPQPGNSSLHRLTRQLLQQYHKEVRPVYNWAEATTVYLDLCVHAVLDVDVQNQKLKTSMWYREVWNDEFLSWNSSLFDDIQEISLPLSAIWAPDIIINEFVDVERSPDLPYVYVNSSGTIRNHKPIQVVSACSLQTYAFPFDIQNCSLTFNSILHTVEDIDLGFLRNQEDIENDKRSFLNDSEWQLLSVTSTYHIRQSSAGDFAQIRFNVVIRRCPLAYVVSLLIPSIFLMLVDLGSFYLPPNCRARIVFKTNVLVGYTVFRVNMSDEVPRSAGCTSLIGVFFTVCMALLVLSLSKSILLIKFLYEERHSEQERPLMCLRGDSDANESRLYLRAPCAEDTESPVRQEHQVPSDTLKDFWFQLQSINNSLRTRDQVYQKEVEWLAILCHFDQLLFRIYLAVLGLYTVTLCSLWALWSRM
Briefly: Inhibition of [3H]-Q-ICS 205-930 binding to rat cortex homogenate 5-hydroxytryptamine 3 receptor.

For data set [2], the target named is T2, 5-HT2C receptors (Sus scrofa, UniProt K7GSR7). Briefly: Binding activity against 5-hydroxytryptamine 2C receptor from pig cortex membrane using [3H]mesulergine as radioligand.
For another data set, the species on record is Oryctolagus cuniculus. Briefly: Functional activity was determined by the contraction of New Zealand white rabbit saphenous vein.
For data set [3], the target named is 5-hydroxytryptamine receptor 1D (Sus scrofa, UniProt P79400). The experiment in a line: Binding activity against 5-hydroxytryptamine 1D receptor from pig caudate membrane using [3H]5-HT as radioligand.
5-hydroxytryptamine receptor 1D, sequence (P79400 whole entry): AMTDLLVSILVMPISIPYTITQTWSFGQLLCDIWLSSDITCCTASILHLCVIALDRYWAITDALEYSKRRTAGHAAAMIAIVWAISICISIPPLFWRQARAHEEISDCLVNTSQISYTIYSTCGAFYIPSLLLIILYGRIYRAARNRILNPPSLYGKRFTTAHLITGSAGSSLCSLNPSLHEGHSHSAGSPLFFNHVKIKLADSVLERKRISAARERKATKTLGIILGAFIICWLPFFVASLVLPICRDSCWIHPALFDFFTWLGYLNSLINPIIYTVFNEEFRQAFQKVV
The nature of data set [4]: Partition coefficient (logD7.4). The conditions noted are these: octanol/water, pH 7.4.
Data set [5] is described as follows: Binding activity against 5-hydroxytryptamine 2C receptor from pig cortex membrane using [3H]mesulergine as radioligand.
For data set [6], the target named is T2, 5-HT2C receptors. Briefly: Binding activity against 5-hydroxytryptamine 2C receptor from pig cortex membrane using [3H]mesulergine as radioligand; NA Not Available.
The target in data set [7] is T1, Serotonin 3 (5-HT3) receptor. Briefly: Binding activity radioligand. In kind it is protein-complex assay.
Data set [8] deals with Serotonin 3 (5-HT3) receptor. The experiment in a line: Binding activity against 5-hydroxytryptamine 1A receptor from human brain cortex using [3H]8-OH-DPAT[…] radioligand.

`CN(C)CCc1c[nH]c2ccc(Cc3nnn(C)n3)cc12`: the IC50 (in data set [1]; on 5-HT2C receptors [2]) was 2510 nM throughout. For the same compound, the response in the data set filed under Oryctolagus cuniculus was half-maximal at 1000 nM (EC50).
As for `CN(C)CCc1c[nH]c2ccc(Cn3nccn3)cc12`, the IC50 in [3] was 251 nM. The same compound showed a log distribution coefficient (logD) in data set [4] of -0.2.
Turning to `CCn1nnc(Cc2ccc3[nH]cc(CCN(C)C)c3c2)n1`, the IC50 in [1] is 2510 nM; at 5-HT2C receptors [2], 1580 nM. This compound had an EC50 in the data set filed under Oryctolagus cuniculus of 631 nM.
In turn, `CN(C)CCc1c[nH]c2ccc(Cc3nnn[nH]3)cc12` had an IC50 on 5-HT2C receptors [2] of over 10000 nM.
In data set [5], `CN(C)CCc1c[nH]c2ccc(Cc3nc(N)no3)cc12` gave a pIC50 of 5.9. The IC50 on 5-HT2C receptors [2] is 398 nM.
In the case of `CCn1nnnc1Cc1ccc2[nH]cc(CCN(C)C)c2c1`, the 50% inhibitory concentration (IC50) (in data set [1]; at 5-HT2C receptors [2]) was over 10000 nM in each case. For the same compound, in the data set listed under Oryctolagus cuniculus, the 50% effective concentration (EC50) is 398 nM.
As to `CN(C)CCc1c[nH]c2ccc(Cn3ccnn3)cc12`, the IC50 on 5-HT2C receptors [6] is 6310 nM. In the data set listed under Oryctolagus cuniculus, the midpoint of the response, the EC50, lay at 1000 nM.
`CN(C)CCc1c[nH]c2ccc(Cc3ncn(C)n3)cc12` gave an IC50 in [3] of 200 nM. The same compound displayed a logD in data set [4] of -1.01.
With `CN(C)CCc1c[nH]c2ccc(Cc3ncnn3C)cc12`, the figures for the IC50 (in data set [1]; at 5-HT2C receptors [2]) were 10000 nM and 3980 nM, respectively. This compound also had an EC50 in the data set filed under Oryctolagus cuniculus of 631 nM. This compound also showed a logD in [4] of -0.75.
Consider `CN(C)CCc1c[nH]c2ccc(Cn3ccnc3)cc12`, for which the IC50 is 1260 nM in data set [1] and 3160 nM at 5-HT2C receptors [2]. Also, the EC50 in the data set listed under Oryctolagus cuniculus is 501 nM. In data set [4], this compound had a logD of -0.53.
With `CN(C)CCc1c[nH]c2ccc(Cc3nnnn3C)cc12`, the IC50 in data set [1] was 5010 nM; at 5-HT2C receptors [2], over 10000 nM. The response in the data set filed under Oryctolagus cuniculus was half-maximal at 251 nM (EC50).
As to `Cc1nccn1Cc1ccc2[nH]cc(CCN(C)C)c2c1`, the IC50 in [1] was 1580 nM; at 5-HT2C receptors [2], 7940 nM. This compound had an EC50 in the data set listed under Oryctolagus cuniculus of 631 nM.
As for `CN(C)CCc1c[nH]c2ccc(Cn3ncnn3)cc12`, the IC50 in [1] was 3160 nM; at 5-HT2C receptors [2], 2000 nM. Further, the response in the data set filed under Oryctolagus cuniculus was half-maximal at 200 nM (EC50). For the same compound, the logD in data set [4] is -0.34.
In the case of `CN(C)CCc1c[nH]c2ccc(Cn3cnnn3)cc12`, the 50% inhibitory concentration (IC50) was 1260 nM in [1] and 5010 nM on 5-HT2C receptors [2]. The compound further had an EC50 in the data set filed under Oryctolagus cuniculus of 200 nM.
Turning to `Cc1nccn1-c1ccc2[nH]cc(CCN(C)C)c2c1`, the IC50 in [1] is 3160 nM; at 5-HT2C receptors [2], over 10000 nM. The same compound showed an EC50 in the data set filed under Oryctolagus cuniculus of 158 nM. This compound also registered a logD in data set [4] of -0.13.
On to `CN(C)CCc1c[nH]c2ccc(Cc3nncn3C)cc12`, for which, at 5-HT2C receptors [2], the IC50 is over 10000 nM.
On to `CN(C)CCc1c[nH]c2ccc(-n3cncn3)cc12`, for which the IC50 (in data set [1]; on 5-HT2C receptors [2]) was 10000 nM each time. In the data set listed under Oryctolagus cuniculus, it took 63.1 nM to reach a half-maximal effect (EC50).
As for `CN(C)CCc1c[nH]c2ccc(Cn3cncn3)cc12` [RIZATRIPTAN], the IC50 in [7] was 3980 nM; at 5-HT2C receptors [2] it was 6310 nM. The same compound showed a pIC50 in data set [8] of under 5. This compound also had an EC50 in the data set listed under Oryctolagus cuniculus of 251 nM. In data set [4], this compound showed a logD of -0.74.
